Source: publication PMC2868067 (Molecular cancer therapeutics, 2010)

Test system: kinases in the Src family
Conditions: read-out: apparent IC50, Srctide; multiplexed, treated K-562 lysates (Figure 6A)

IC50: 1.1 nM
SMILES: Cc1nc(Nc2ncc(C(=O)Nc3c(C)cccc3Cl)s2)cc(N2CCN(CCO)CC2)n1 [dasatinib, N-(2-chloro-6-methyl-phenyl)-2-(6-(4-(2-hydroxyethyl)-piperazin-1-yl)-2-methylpyrimidin-4-ylamino)thiazole-5-carboxamide]
